Source: ChEMBL document CHEMBL1152129, “Quantitative structure-activity relationship and complex network approach to monoamine oxidase A and B inhibitors” (J Med Chem, 2008)

Legend:
[1] = target: T1, Amine oxidase [flavin-containing] B (Homo sapiens, UniProt P27338); assay: Inhibition of human liver MAOB
T1 sequence (P27338 whole entry): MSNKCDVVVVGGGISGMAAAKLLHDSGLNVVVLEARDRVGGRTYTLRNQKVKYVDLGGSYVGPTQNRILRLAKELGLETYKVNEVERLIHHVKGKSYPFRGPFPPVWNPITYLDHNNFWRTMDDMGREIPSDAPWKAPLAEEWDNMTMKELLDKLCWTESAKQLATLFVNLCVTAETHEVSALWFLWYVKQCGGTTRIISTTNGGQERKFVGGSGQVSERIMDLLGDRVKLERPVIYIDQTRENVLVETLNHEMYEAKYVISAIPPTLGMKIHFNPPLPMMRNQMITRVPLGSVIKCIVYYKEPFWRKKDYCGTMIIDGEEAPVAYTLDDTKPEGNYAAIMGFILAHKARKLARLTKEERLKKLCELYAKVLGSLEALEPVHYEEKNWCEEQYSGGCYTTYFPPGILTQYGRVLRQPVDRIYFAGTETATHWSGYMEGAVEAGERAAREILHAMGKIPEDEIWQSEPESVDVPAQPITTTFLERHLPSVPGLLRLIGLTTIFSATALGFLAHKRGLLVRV

[2] = target: T2, Amine oxidase [flavin-containing] A (Homo sapiens, UniProt P21397); assay: Inhibition of human liver MAOA
T2 sequence (P21397 whole entry): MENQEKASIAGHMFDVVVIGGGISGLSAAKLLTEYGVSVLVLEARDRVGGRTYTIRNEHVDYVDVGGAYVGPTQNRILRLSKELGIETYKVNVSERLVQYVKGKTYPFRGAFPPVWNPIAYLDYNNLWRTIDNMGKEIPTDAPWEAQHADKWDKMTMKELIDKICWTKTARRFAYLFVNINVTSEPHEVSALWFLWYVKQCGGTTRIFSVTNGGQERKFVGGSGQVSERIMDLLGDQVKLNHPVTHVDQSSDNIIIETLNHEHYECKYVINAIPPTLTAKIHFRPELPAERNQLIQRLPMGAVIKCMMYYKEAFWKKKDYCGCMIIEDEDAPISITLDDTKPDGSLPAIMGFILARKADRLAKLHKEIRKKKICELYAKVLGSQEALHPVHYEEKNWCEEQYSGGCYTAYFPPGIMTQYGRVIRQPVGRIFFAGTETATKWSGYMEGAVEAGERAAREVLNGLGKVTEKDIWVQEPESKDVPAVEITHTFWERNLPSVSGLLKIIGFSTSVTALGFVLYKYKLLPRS

[3] = target: T2, Amine oxidase [flavin-containing] A; assay: Inhibition of human recombinant MAOA by fluorimetric method; conditions: for Activity: human
[4] = target: T1, Amine oxidase [flavin-containing] B; assay: Inhibition of human recombinant MAOB at 100 uM by fluorimetric method

Row | Structure (SMILES) | Activity [2] | Activity [3] | further results
1 | OC1CCCCC1N1CCC(c2ccccc2)CC1 (stereo not drawn) | Not Active |  | Activity [1]: Not Active
2 | COc1c(O)ccc2c(C)cc(=O)oc12 |  |  | IC50 [3]: 80.3 µM; Activity [4]: Not Active
3 | CCOC(N)=O | Not Active |  | Activity [1]: Not Active
4 | COC(=O)[C@H](Cc1cnc[nH]1)NC(=O)Cc1ccc(N(CCCl)CCCl)cc1 |  |  | Activity [1]: Not Active; Activity [4]: Not Active
5 | Cn1cc(I)ccc1=O | Not Active |  | 
6 | CO[C@@]12[C@H](COC(N)=O)C3=C(C(=O)C(C)=C(N)C3=O)N1C[C@H]1[C@@H]2N1c1ccc(O)cc1 |  | Not Active | 
7 | N[C@@H]1C[C@H]1c1ccccc1.N[C@H]1C[C@@H]1c1ccccc1 (racemic) [TRANYLCYPROMINE] | Not Active |  | Activity [1]: Not Active
8 | CC(=O)Nc1nnc(S(N)(=O)=O)s1 [ACETAZOLAMIDE] | Not Active |  | Activity [1]: Not Active
9 | CC(c1cnc2nc(N)nc(N)c2n1)N(C)c1ccc(C(=O)N[C@@H](CCC(=O)O)C(=O)O)cc1 (stereo partly drawn) [ADENOPTERIN] |  | Not Active | 
10 | O=C1c2ccccc2C(=O)c2c(NCCNCCO)ccc(NCCNCCO)c21 [AMETANTRONE] | Not Active |  | Activity [1]: Not Active
11 | CC(=O)Nc1ccc(/C=N/NC(N)=S)cc1 [AMITHIOZONE] |  | Not Active | 
12 | C=CCC(C(=O)NC(N)=O)C(C)C (stereo not drawn) [APRONAL] | Not Active |  | 
13 | CCOC(=O)[C@H](Cc1ccc(O)cc1)NC(=O)[C@H](Cc1ccc(N(CCCl)CCCl)cc1)NC(C)=O [ASDOPHAN] |  | Not Active | 
14 | CC(=O)OC1C=CC(=O)OC1C1OC1C (stereo not drawn) [ASPERLIN] |  | Not Active | 
15 | CCOC(=O)OC(C)OC(=O)[C@@H]1N2C(=O)[C@@H](NC(=O)[C@H](N)c3ccccc3)[C@H]2SC1(C)C (stereo partly drawn) [BACAMPICILLIN] | Not Active |  | Activity [1]: Not Active
16 | C[C@H](N)C(=O)N[C@@H]1[C@H]2C(=C(O)C[C@@H](O)[C@@H]2O)C(=O)O[C@]1(C)C(Cl)Cl [BACTOBOLIN] | Not Active |  | Activity [1]: Not Active
17 | O=C(O)c1ccc(NC2OC[C@@H](O)[C@H](O)[C@H]2O)cc1 (stereo partly drawn) [BENAXIBINE] |  | Not Active | 
18 | C=CC(=O)NCNC(=O)CCBr [BROMACRYLIDE] |  | Not Active | 
19 | O=C(O)CCCCSc1[nH]cnc2ncnc1-2 [BUTHIOPURINE] | Not Active |  | 
20 | C[C@H]1CC2=CC(=O)CC[C@]2(C)[C@H]2CC[C@@]3(C)[C@@H](CC[C@]3(C)O)[C@H]12 [CALUSTERONE] |  | Not Active | 
21 | Cc1nnc(SCC2=C(C(=O)O)N3C(=O)[C@@H](NC(=O)Cn4cnnn4)[C@H]3SC2)s1 [CEFAZOLIN] |  | Not Active | 
22 | C=CC1=C(C(=O)O)N2C(=O)[C@@H](NC(=O)/C(=N\OCC(=O)O)c3csc(N)n3)[C@H]2SC1 [CEFIXIME] |  | Not Active | 

Row | Structure (SMILES) | Activity [2] | Activity [3] | further results
23 | COC1=C(C)C(=O)C2=C(C1=O)[C@@H](CO)N1[C@H]3[C@H]4[C@@H](C[C@H]([C@H]1C#N)N4C)[C@@H]1OCCN1[C@@H]23 [CYANOCYCLINE A] |  | Not Active | 
24 | C[C@@H]1C[C@@H]([C@H](O)CC2CC(=O)NC(=O)C2)C(=O)[C@@H](C)C1 [CYCLOHEXIMIDE] |  | Not Active | 
25 | CC(=O)OCC(=O)[C@@]12N=C(C)O[C@@H]1C[C@H]1[C@@H]3CCC4=CC(=O)C=C[C@]4(C)[C@H]3[C@@H](O)C[C@@]12C [DEFLAZACORT] | Not Active |  | Activity [1]: Not Active
26 | COc1cccc2c1C(=O)c1c(O)c3c(c(O)c1C2=O)C[C@@](O)(C(=O)CO)C[C@@H]3O[C@H]1C[C@H](N)[C@H](O)[C@H](C)O1 [DOXORUBICIN] |  | Not Active | 
27 | O=NN(CCCl)C(=O)NCCO [ELMUSTINE] |  | Not Active | 
28 | CCc1cc(C(N)=S)ccn1 [ETHIONAMIDE] |  |  | Activity [1]: Not Active; Activity [4]: Not Active
29 | CCC1(C)CC(=O)NC1=O (stereo not drawn) [ETHOSUXIMIDE] |  |  | Activity [4]: Not Active
30 | CCc1nc(N)nc(N)c1-c1ccc(Cl)c(Cl)c1 [ETOPRINE] |  | Not Active | 
31 | CCOC(=O)/C=C1\SC(N2CCCCC2)C(=O)N1C (stereo not drawn) [ETOZOLIN] |  | Not Active | 
32 | O=c1[nH]c(=O)n([C@H]2C[C@H](O)[C@@H](CO)O2)cc1F [FLOXURIDINE] |  |  | Activity [1]: Not Active; Activity [4]: Not Active
33 | O=C(NP(=O)(N1CC1)N1CC1)c1ccc(F)cc1 [FLUORBENZOTEF] |  | Not Active | 
34 | Cc1ccc(S(=O)(=O)NC(=O)N[C@H]2[C@H]3CC[C@@](C)([C@H]2O)C3(C)C)cc1 [GLIBORNURIDE] |  | Not Active | 
35 | COc1ccc(Cl)cc1C(=O)NCCc1ccc(S(=O)(=O)NC(=O)NC2CCCCC2)cc1 [GLYBURIDE] |  | Not Active | 
36 | NC(=O)NO [HYDROXYUREA] |  | Not Active | 
37 | CNCCc1ccc(OC(=O)C(C)C)c(OC(=O)C(C)C)c1 [IBOPAMINE] |  | Not Active | 
38 | CC(C)Cc1ccc(C(C)C(=O)O)cc1 (stereo not drawn) [IBUPROFEN] |  | Not Active | 
39 | CC(CCc1ccccc1)NCC(O)c1ccc(O)c(C(N)=O)c1 (stereo not drawn) [LABETALOL] |  | Not Active | 
40 | OC[C@@H](O)[C@@H](O)[C@H](O)[C@H](O)CO [MANNITOL] |  | Not Active | 
41 | Cc1cc(Cl)ccc1OCC(=O)O [METAXON] |  | Not Active | 
42 | O[C@@H]([C@H](O)[C@H](O)CBr)[C@H](O)CBr [MITOBRONITOL] |  | Not Active | 
43 | CC(/C=N/NC(=N)N)=N\NC(=N)N [MITOGUAZONE] |  | Not Active | 
44 | COc1cc2c(cc1O)N=C[C@@H]1CC[C@H](O)N1C2=O [NEOTHRAMYCIN A] | Not Active |  | 

Row | Structure (SMILES) | Activity [2] | Activity [3] | further results
45 | O=c1[nH]nc(-c2ccncc2)o1 [NEOVADRINE] | Not Active |  | 
46 | COCCOC(=O)C1=C(C)NC(C)=C(C(=O)OC(C)C)C1c1cccc([N+](=O)[O-])c1 (stereo not drawn) [NIMODIPINE] |  | Not Active | 
47 | CN(C)[C@@H]1C(O)=C(C(N)=O)C(=O)[C@@]2(O)C(O)=C3C(=O)c4c(O)cccc4[C@@](C)(O)[C@H]3[C@H](O)[C@@H]12 [OXYTETRACYCLINE] | Not Active |  | 
48 | CC[C@H](C)[C@@H]1NC(=O)[C@H](Cc2ccc(O)cc2)NC(=O)[C@@H](N)CSSC[C@@H](C(=O)N2CCC[C@H]2C(=O)N[C@@H](CC(C)C)C(=O)NCC(N)=O)NC(=O)[C@H](CC(N)=O)NC(=O)[C@H](CCC(N)=O)NC1=O [OXYTOCIN] | Not Active |  | 
49 | CCOc1ccc(NC(C)=O)cc1.Cl [PHENACETIN CHLORIDE] | Not Active |  | 
50 | CCC1(c2ccccc2)C(=O)NC(=O)NC1=O [PHENOBARBITAL] |  | Not Active | 
51 | CN1C(CSCC(F)(F)F)Nc2cc(Cl)c(S(N)(=O)=O)cc2S1(=O)=O (stereo not drawn) [POLYTHIAZIDE] | Not Active |  | 
52 | COc1cc(NC(C)CCCN)c2ncccc2c1 (stereo not drawn) [PRIMAQUINE] |  | Not Active | 
53 | CCC1(c2ccccc2)C(=O)NCNC1=O [PRIMIDONE] |  | Not Active | 
54 | Nc1nc(=O)c2nc(CNc3ccc(C(=O)NC(CCC(=O)NC(CCC(=O)NC(CCC(=O)O)C(=O)O)C(=O)O)C(=O)O)cc3)cnc2[nH]1 (stereo not drawn) [PTEROPTERIN] | Not Active |  | 
55 | CCCCC1=C2N=C(N)N[C@H]3CC[C@@H](C[C@@H]1C)[C@@H]23 [PTILOCAULINE] | Not Active |  | 
56 | CC1=C(/C=C/C(C)=C/C=C/C(C)=C/CO)C(C)(C)CCC1 [RETINOL] |  | Not Active | 
57 | CCCCCCCCCCCCCCCC(=O)N(CCCCN(C)C)CCCCN(C)C [SOLAPALMITINE] |  | Not Active | 
58 | Nc1ccc(S(=O)(=O)Nc2ncccn2)cc1 [SULFADIAZINE] | Not Active |  | 
59 | [H]/N=C(/N)NS(=O)(=O)c1ccc(N)cc1 [SULFAGUANIDINE] | Not Active |  | 
60 | Cc1noc(NS(=O)(=O)c2ccc(N)cc2)c1C [SULFISOXAZOLE] |  | Not Active | 
61 | CCCCNc1ccc(C(=O)OCCN(C)C)cc1 [TETRACAINE] | Not Active |  | Activity [1]: Not Active
62 | Clc1sc(Cl)c(Cl)c1Cl [TETRACHLOROTHIOPHENE] | Not Active |  | Activity [1]: Not Active
63 | OC[C@H]1O[C@@H](n2cnc3c(S)ncnc32)[C@H](O)[C@@H]1O [THIOINOSINE] |  | Not Active | 
64 | N#CC(O[C@@H]1O[C@H](CO[C@@H]2O[C@H](CO)[C@@H](O)[C@H](O)[C@H]2O)[C@@H](O)[C@H](O)[C@H]1O)c1ccccc1 (stereo partly drawn) [VITAMIN B17] |  | Not Active | 
